{
  "source": "patent US20050064382A1",
  "about": "“Method of prevention of lysosomal leakage in eukaryotic cells by using 6-methyluracil based water-soluble compounds and method of producing thereof” (priority 2002, published 2005)",
  "key": {"MEL cells": {"test_system": "MEL cells", "test": "Cell recovery after short-term and long-term storage at −135° C.", "assay_type": "cell-based, mouse", "conditions": "for numbers of cells per ml, Short-Term Storage: 3 days at −135° C.; for numbers of cells per ml, Long-Term Storage: six weeks at −135° C.", "protocol": "The cells were then brought to −135° C. over a two-hour period, and stored at this temperature for 3 days (short term) or six weeks (long term). The cells were then thawed quickly by incubation at 37° C., washed twice with growing medium, re-suspended in 5 ml and incubated at 37° C. for 24 hours. The numbers of cells per ml. is x 10^4, two different assays. […]"}, "[1]": {"test_system": "rat thyroid-derived cell line FRTL-5", "test": "Storage of FRTL-5 cells at low temperature, viability by well bottom coverage", "assay_type": "cell-based", "protocol": "(§1) The goal of the study was to assess the influence of Glucural on cell recovery of different mammalian cells suspended in various cryo-protectors. A single layer of the rat thyroid-derived cell line FRTL-5 was grown in VPF-12 medium containing 10% calf serum (C.S.) in Petri dishes (10 cm) stored in an environment of 5% CO2, 100% humidity and at 37° C. Cell coverage on the Petri dish bottom reached 80-90% over 6-8 days. A single-layer cell culture of the cell line from the anterior lobe of the pituitary gland (corticotrophs) of ATT-20 was grown in similar fashion but in D-MEM medium containing 10% C.S.\n(§2) After exposure, cell suspensions were melted quickly in aliquots with cell suspension equal to 0.2 or 0.4 ml per well. The growing period varied depending on conditions of cell storage. All trials were performed in duplicate. Cell viability was estimated by the percentage of the well bottom covered by cells.\n(§3) The same method was used here as in tests with MEL cells. Cryo-protectors used were not optimal for FRTL-5 and ATT-20 cells. Conditions of freezing were not optimal in assays # 1, 5 and 6."}, "[2]": {"test_system": "ATT-20 cells (anterior lobe of the pituitary gland, corticotrophs)", "test": "Storage of ATT-20 cells at low temperature, viability by well bottom coverage", "assay_type": "cell-based", "conditions": "10% Glycerol", "protocol": "as §1, §2, §3"}, "Saccaramices Cerevisiae": {"test_system": "Saccaramices Cerevisiae", "test": "Viability of lyophilized yeast", "assay_type": "cell-based", "conditions": "added prior to lyophilization", "protocol": "The lyophilization of yeast is a very common technique used in different fields of industry, biotechnology and research. The viability of lyophilized yeast species and strains can vary greatly. The viability of commercial baking yeast after lyophilization is high (50-80%). But other strains of yeast used in industry and research, can have viability as low as […]. […] Glucural was tested using the strain of yeast called Saccaramices Cerevisiae, a strain with a very low level of viability after lyophilization. By increasing the viability of lyophilized yeast inoculums, the amount of yeast required to make such inoculums may be lowered.\nThe standard method of lyophilization was used. […] The suspensions were aliquoted and lyophilized at standard conditions.\nTo assay the vitality of lyophilized yeast, two approaches were used:\nThe lyophilized yeast from an ampoule was re-suspended in 1 ml of regular growing medium and diluted by 10, 100, and 1,000 times. The suspensions of yeast were plated on the regular YPD agarose medium by 20 mkl per plate. After growing the colonies for 48 hours at 28° C., the number of colonies was counted.\nThis test included growing lyophilized yeast in 10 ml of growth medium for 24 hours, before plating on the agarose plates as described above.\nThe viability of the yeast strain tested increased by a factor of between 50 to 100 compared to the control group."}, "[3]": {"test_system": "skeletal (rear leg) muscle homogenates", "test": "Proteolytic index of muscle homogenates (autoproteolysis, Ninhidrin)", "assay_type": "biochemical, rat", "protocol": "In-vitro tests were performed on the skeletal (rear leg) muscles of 17 white laboratory rats. Preliminary research efforts determined 1) the preparation method for muscle homogenates, 2) estimation of level of the proteolytic activity by measuring for the concentration of free amino acids, a result of protein cleavage, and 3) the optimal time of authoproteolysis.\nThe preparation of muscle homogenates. Efforts were made to disassemble the muscle tissue gently, without disruption of the lysosomes, though with sufficient strength to ensure a homogeneous suspension of muscle cells in physiological solution (PBS). Potter's homogenator was used with a glass barrel and a Teflon pestle. Determination of the optimal treatment was based on experimental data and the activity of the proteases during the incubation of the homogenates at 37° C. If lysosomes were damaged during preparation of the homogenates, then there was no increase in concentration of free amino acids during incubation. Undamaged lysosomes in the homogenate would continue their proteolytic activity during incubation. For the best preparation of the homogenate, the muscles were separated from the connecting tissue, weighed and cut up with scissors in a Petri dish for 10 minutes. […]\nAfter the incubation of samples, the protein concentration was estimated by the standard Bio-Rad method. To estimate proteolytic activity based on the concentration of free amino acids found in the sample, three methods were tried: 1) absorbance at 280 nm, 2) concentration of amino acid tyrosine by estimation with Folin reagent, and 3) concentration of end amino groups with Ninhidrin reagent. Only method 3 provided accurate results, so the proteolytic index was measured based on the Ninhidrin reagent. […] Samples were boiled in a water bath for 10 minutes, chilled and the absorbance at 560 nm was measured. […] Concentrations of free amino acids and protein in mg/ml could therefore be determined for both cases. The ratio of free amino acids per proteins in the sample was calculated as the proteolytic index. […]"}, "Drosophila": {"test_system": "Drosophila", "test": "X-ray caused loss of X-chromosomes in late oocyte of Drosophila", "assay_type": "in vivo", "conditions": "1000 Roentgens"}},
  "data": [
    {"substance": "complex of 2,4-dihydroxy-6-methylpyrimidine with N-methyl-D-glucamine [Glucural]", "values": [
      {"measurement": "effect during short-term storage", "setting": "MEL cells", "value": "little or no effect"},
      {"measurement": "numbers of cells per ml, Short-Term Storage", "setting": "MEL cells; Glucural 10 mkg/ml", "value": "34 ± 4 x 10^4"},
      {"measurement": "numbers of cells per ml, Long-Term Storage", "setting": "MEL cells; Glucural 10 mkg/ml", "value": "122 ± 8 x 10^4"},
      {"measurement": "numbers of cells per ml, Short-Term Storage", "setting": "MEL cells; Glucural 25 mkg/ml", "value": "38 ± 2 x 10^4"},
      {"measurement": "numbers of cells per ml, Long-Term Storage", "setting": "MEL cells; Glucural 25 mkg/ml", "value": "167 ± 3 x 10^4"},
      {"measurement": "numbers of cells per ml, Short-Term Storage", "setting": "MEL cells; Glucural 50 mkg/ml", "value": "33 ± 2 x 10^4"},
      {"measurement": "numbers of cells per ml, Long-Term Storage", "setting": "MEL cells; Glucural 50 mkg/ml", "value": "200 ± 12 x 10^4"},
      {"measurement": "numbers of cells per ml, Short-Term Storage", "setting": "MEL cells; Glucural 100 mkg/ml", "value": "37 ± 2 x 10^4"},
      {"measurement": "numbers of cells per ml, Long-Term Storage", "setting": "MEL cells; Glucural 100 mkg/ml", "value": "169 ± 15 x 10^4"},
      {"measurement": "numbers of cells per ml, Short-Term Storage", "setting": "MEL cells; Glucural 200 mkg/ml", "value": "56 ± 5 x 10^4"},
      {"measurement": "numbers of cells per ml, Long-Term Storage", "setting": "MEL cells; Glucural 200 mkg/ml", "value": "155 ± 14 x 10^4"},
      {"measurement": "increase of cell survival rates during long-term storage", "setting": "MEL cells; optimal concentration of about 50 mkg/ml", "value": "over 3 times"},
      {"measurement": "Percentage of well bottom covered by cells", "setting": "[1]; #1 FRTL-5 (4 days), 10% Glycerol, −70° C., Glucural 100 mg/ml", "value": "90-100%"},
      {"measurement": "Percentage of well bottom covered by cells", "setting": "[1]; #1 FRTL-5 (4 days), 10% Glycerol, −70° C., Glucural 200 mg/ml", "value": "90-100%"},
      {"measurement": "Percentage of well bottom covered by cells", "setting": "[1]; #2 FRTL-5 (36 days), 10% Glycerol, −190° C., Glucural 100 mg/ml", "value": "10-15%"},
      {"measurement": "Percentage of well bottom covered by cells", "setting": "[1]; #3 FRTL-5 (4 days), 50% C.S., 0° C., 30 min, Glucural 100 mg/ml", "value": "60-70%"},
      {"measurement": "Percentage of well bottom covered by cells", "setting": "[1]; #3 FRTL-5 (4 days), 50% C.S., 0° C., 30 min, Glucural 200 mg/ml", "value": "60-70%"},
      {"measurement": "Percentage of well bottom covered by cells", "setting": "[2]; #4 AtT-20 (3 days), −190° C., Glucural 50 mg/ml", "value": "50-60%"},
      {"measurement": "Percentage of well bottom covered by cells", "setting": "[2]; #4 AtT-20 (3 days), −190° C., Glucural 100 mg/ml", "value": "80-90%"},
      {"measurement": "Percentage of well bottom covered by cells", "setting": "[2]; #5 AtT-20 (44 days), −70° C., Glucural 100 mg/ml", "value": "40-50%"},
      {"measurement": "Percentage of well bottom covered by cells", "setting": "[2]; #5 AtT-20 (44 days), −70° C., Glucural 200 mg/ml", "value": "30-40%"},
      {"measurement": "Percentage of well bottom covered by cells", "setting": "[2]; #6 AtT-20 (46 days), −70° C., additional melting freezing, Glucural 100 mg/ml", "value": "20-30%"},
      {"measurement": "Percentage of well bottom covered by cells", "setting": "[2]; #6 AtT-20 (46 days), −70° C., additional melting freezing, Glucural 200 mg/ml", "value": "10-20%"},
      {"measurement": "optimal dose to protect yeast cells", "setting": "Saccaramices Cerevisiae", "value": 25, "unit": "mkg/ml"},
      {"measurement": "decrease of proteolytic activity in muscles", "setting": "[3]; Glucural 50 mkg/ml (Group 4)", "value": 36, "unit": "%"},
      {"measurement": "decrease of proteolytic activity in muscles", "setting": "[3]; Glucural 100 mkg/ml (Group 5)", "value": 51, "unit": "%"},
      {"measurement": "reduction of autoproteolysis", "setting": "[3]; Glucural less than 50 mkg/ml", "value": "not sufficient to reduce autoproteolysis"},
      {"measurement": "Frequency of the loss of X-chromosomes, %", "setting": "Drosophila; 1.0 mkg/female", "value": "1.7 ± 0.21", "unit": "%"},
      {"measurement": "Frequency of the loss of X-chromosomes, %", "setting": "Drosophila; 2.0 mkg/female", "value": "1.1 ± 0.20", "unit": "%"},
      {"measurement": "Frequency of the loss of X-chromosomes, %", "setting": "Drosophila; 2.5 mkg/female", "value": "0.9 ± 0.18", "unit": "%"},
      {"measurement": "Frequency of the loss of X-chromosomes, %", "setting": "Drosophila; 5.0 mkg/female", "value": "0.7 ± 0.14", "unit": "%"},
      {"measurement": "Frequency of the loss of X-chromosomes, %", "setting": "Drosophila; 10.0 mkg/female", "value": "1.2 ± 0.19", "unit": "%"}
    ]}
  ]
}
